# From PMC5911580, “YL143, a novel mutant selective irreversible EGFR inhibitor, overcomes EGFR^L858R, T790M‐mutant resistance in vitro and in vivo” (Cancer Medicine, 2018)
# Key:
# H1975 cells = experiment: Cell cycle analysis by flow cytometry (propidium iodide); type: cell-based, human
# Description: The effect of YL143 to induce cell cycle arrest and apoptosis in H1975 cells was investigated by flow cytometry analysis. […] Treatment with 300 nmol/L of YL143 for 48 h led to 82.11% G0/G1 phase arrest and 34.1% apoptosis. […] (Fig. 3C).
# Figure 3 YL143 induces G0/G1 cell cycle arrest and apoptosis in H1975 cells. (A) YL143 induces G0/G1 cell cycle arrest in H1975 cells H1975 cells were treated with 3, 30 or 300 nmol/L for 48 h before DNA labeling by propidium iodide and cell cycle analysis by flow cytometry. (B) YL143 induces apoptosis in H1975 cells. H1975 cells were treated with 3, 30 or 300 nmol/L for 48 h before DNA labeling by Annexin V and 7‐AAD and cell apoptosis analysis by flow cytometry. (C) The effect of YL143 on the expression of CDK4, Cyclin D2, CDK2, Cyclin E, Caspase‐9 and Caspase‐3 was tested by western blotting. The cells were treated with YL143 from 3 to 300 nmol/L for 48 h. Representative results are shown and similar results were obtained in three other independent trials. […]
# [1] = system: HCC827 (EGFR^del 19) cells; experiment: CCK-8 cell growth assay, HCC827; type: cell-based; conditions: Homo sapiens, HCC827; CCK-8, 72 h; AV ± SD; read-out: antiproliferative IC50 HCC827
# Description: (§1) Cells were seeded into 96‐well plates at a density of 1500~3000/well in complete medium overnight. Then, cells were treated with various concentrations (0.01~1000 nmol/L) of YL143 for additional 3 days. Viable cell numbers were determined by Cell Counting Kit 8 (CCK8, CK04, Dojindo Laboratories, Japan). Each assay consisted of three replicate wells and repeated at least three times. […] Each IC50 value was expressed as mean ± SD.
# BaF3-EGFR ^L858R = experiment: CCK-8 assay, BaF3-EGFR L858R stable cells; type: cell-based; conditions: Ba/F3 EGFR-L858R; CCK-8; AV±SD; read-out: anti-proliferative activity BaF3-EGFR L858R
# Description: as §1
# The anti-proliferative activities of the compounds were evaluated using CCK-8 assay. The data were means from at least four independent experiments.
# Kit = Kit (Homo sapiens, UniProt P10721); experiment: Z'-Lyte kinase panel, Kit; type: biochemical; conditions: 1.5 hrs incubation
# Description: Kinase activity assays were performed using the FRET-based Z′-Lyte assay according to the manufacturer’s instructions. The compounds were incubated with the kinase reaction mixture for 1.5 hrs before measurement. The data are means from two independent experiments and the variations are below 20%.
# EGFR^Del 19 = target: T1, EGFR^Del 19 (Homo sapiens, UniProt P00533, DEL746-750); experiment: FRET-based Z'-Lyte kinase assay, EGFR Del 19; type: biochemical; conditions: AV ± SD; 1.5 h incubation
# T1 construct: purchased Invitrogen
# Description: (§2) The kinase activity assay was performed and optimized according to the instructions of Z’‐LYTE™ kinase assay kits from the manufacturer (PV4879, Life, America). In our experiments, 10 concentration gradients from 0.01 nmol/L to 1.0 μmol/L were used for all the compounds.
# A549 (EGFR^WT) cells = experiment: CCK-8 cell growth assay, A549; type: cell-based; conditions: Homo sapiens, A549; CCK-8, 72 h; read-out: antiproliferative IC50 A549
# Description: as §1
# [2] = system: H1975 (EGFR^L858R/T790M) cells; experiment: CCK-8 cell growth assay, H1975; type: cell-based; conditions: Homo sapiens, NCI-H1975; CCK-8, 72 h; AV ± SD; read-out: antiproliferative IC50 H1975
# Description: as §1
# IGF1R = IGF1R (Homo sapiens, UniProt P08069); experiment: FRET-based Z'-Lyte kinase assay, IGF1R; type: biochemical; conditions: AV ± SD; 1.5 h incubation
# Description: as §2
# EGFR^T790M = target: T2, EGFR^T790M (Homo sapiens, UniProt P00533, T790M); experiment: FRET-based Z'-Lyte kinase assay, EGFR T790M; type: biochemical; conditions: AV ± SD; 1.5 h incubation
# T2 construct: purchased Invitrogen
# Description: as §2
# T1 sequence (P00533 with tags, fused parts or gaps DEL746-750): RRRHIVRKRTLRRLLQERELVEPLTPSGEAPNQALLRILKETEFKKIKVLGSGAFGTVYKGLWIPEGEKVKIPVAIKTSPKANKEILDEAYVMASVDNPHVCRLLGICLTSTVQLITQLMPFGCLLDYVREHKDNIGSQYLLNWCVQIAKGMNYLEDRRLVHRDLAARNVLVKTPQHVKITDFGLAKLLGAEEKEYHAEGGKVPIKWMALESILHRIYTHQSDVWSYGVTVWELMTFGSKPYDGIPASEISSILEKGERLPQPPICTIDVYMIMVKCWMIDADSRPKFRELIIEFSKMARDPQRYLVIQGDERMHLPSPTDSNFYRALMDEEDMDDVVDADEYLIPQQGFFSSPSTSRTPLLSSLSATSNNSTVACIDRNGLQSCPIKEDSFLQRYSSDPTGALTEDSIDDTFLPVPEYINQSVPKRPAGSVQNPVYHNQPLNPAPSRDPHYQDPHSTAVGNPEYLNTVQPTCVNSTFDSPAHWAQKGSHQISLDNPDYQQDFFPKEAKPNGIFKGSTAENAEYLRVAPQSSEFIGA
# T2 sequence (P00533 25-1210 T790M): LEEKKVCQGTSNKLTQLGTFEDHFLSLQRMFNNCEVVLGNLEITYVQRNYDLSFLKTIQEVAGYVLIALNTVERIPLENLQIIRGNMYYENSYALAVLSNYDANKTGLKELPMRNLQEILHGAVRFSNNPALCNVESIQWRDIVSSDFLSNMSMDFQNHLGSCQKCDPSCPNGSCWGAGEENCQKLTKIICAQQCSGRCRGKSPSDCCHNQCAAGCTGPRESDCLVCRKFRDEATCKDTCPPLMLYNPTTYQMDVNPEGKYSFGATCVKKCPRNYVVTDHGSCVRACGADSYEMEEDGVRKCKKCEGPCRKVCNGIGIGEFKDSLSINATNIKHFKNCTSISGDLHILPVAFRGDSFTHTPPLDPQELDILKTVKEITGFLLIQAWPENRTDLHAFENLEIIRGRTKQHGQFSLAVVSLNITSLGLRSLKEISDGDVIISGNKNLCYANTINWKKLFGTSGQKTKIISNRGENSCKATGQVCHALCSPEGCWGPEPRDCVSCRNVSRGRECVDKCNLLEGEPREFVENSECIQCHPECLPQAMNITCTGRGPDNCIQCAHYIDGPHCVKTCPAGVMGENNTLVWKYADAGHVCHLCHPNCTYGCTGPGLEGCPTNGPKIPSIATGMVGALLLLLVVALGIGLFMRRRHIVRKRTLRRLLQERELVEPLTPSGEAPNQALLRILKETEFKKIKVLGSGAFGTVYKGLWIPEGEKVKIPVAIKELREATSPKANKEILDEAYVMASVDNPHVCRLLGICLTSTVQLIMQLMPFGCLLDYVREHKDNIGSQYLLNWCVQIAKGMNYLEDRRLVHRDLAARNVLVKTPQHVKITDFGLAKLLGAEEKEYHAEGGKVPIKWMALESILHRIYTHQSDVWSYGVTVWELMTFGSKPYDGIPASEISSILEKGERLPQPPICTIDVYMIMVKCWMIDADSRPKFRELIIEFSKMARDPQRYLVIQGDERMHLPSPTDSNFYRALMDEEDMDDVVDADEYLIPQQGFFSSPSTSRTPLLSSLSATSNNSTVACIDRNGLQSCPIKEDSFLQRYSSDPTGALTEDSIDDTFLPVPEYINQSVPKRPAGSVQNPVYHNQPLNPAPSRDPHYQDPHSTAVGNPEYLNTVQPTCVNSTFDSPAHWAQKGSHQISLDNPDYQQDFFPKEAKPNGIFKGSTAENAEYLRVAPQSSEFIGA
# Chain of IGF1R (P08069 31-1367, species assumed): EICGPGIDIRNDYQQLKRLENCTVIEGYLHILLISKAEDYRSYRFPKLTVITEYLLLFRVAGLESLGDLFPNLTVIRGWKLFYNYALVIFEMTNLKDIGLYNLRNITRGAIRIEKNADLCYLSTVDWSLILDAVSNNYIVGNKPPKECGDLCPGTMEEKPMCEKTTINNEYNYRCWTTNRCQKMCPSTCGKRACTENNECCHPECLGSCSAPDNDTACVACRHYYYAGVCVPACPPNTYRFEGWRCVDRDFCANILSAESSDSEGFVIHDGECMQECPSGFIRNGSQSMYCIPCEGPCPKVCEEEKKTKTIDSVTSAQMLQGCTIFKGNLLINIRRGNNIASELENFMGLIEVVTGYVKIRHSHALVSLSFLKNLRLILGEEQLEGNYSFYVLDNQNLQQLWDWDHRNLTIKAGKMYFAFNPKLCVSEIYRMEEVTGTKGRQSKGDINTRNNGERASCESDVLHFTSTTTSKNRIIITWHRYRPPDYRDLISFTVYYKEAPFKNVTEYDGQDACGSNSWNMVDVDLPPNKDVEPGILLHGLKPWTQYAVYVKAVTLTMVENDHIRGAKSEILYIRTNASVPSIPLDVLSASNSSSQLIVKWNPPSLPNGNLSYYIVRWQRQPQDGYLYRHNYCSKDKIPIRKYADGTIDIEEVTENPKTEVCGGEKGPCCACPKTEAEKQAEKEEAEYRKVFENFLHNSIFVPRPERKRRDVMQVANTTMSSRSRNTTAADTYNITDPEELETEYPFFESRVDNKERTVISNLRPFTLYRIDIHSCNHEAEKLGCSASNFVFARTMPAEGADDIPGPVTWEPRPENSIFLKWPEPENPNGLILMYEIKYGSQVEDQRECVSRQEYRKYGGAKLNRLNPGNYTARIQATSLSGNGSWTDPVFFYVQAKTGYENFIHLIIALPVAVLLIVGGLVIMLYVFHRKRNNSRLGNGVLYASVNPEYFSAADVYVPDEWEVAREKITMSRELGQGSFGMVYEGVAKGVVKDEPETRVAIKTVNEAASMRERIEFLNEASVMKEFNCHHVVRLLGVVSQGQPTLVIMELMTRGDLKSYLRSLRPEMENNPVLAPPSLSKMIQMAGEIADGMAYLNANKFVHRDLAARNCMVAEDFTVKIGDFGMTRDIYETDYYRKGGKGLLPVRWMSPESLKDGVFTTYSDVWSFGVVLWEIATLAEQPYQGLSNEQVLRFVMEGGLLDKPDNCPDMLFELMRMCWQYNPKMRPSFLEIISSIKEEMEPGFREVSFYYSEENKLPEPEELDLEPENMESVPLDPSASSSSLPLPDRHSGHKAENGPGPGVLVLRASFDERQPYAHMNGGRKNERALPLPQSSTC
# Chain of Kit (P10721 26-976, species assumed): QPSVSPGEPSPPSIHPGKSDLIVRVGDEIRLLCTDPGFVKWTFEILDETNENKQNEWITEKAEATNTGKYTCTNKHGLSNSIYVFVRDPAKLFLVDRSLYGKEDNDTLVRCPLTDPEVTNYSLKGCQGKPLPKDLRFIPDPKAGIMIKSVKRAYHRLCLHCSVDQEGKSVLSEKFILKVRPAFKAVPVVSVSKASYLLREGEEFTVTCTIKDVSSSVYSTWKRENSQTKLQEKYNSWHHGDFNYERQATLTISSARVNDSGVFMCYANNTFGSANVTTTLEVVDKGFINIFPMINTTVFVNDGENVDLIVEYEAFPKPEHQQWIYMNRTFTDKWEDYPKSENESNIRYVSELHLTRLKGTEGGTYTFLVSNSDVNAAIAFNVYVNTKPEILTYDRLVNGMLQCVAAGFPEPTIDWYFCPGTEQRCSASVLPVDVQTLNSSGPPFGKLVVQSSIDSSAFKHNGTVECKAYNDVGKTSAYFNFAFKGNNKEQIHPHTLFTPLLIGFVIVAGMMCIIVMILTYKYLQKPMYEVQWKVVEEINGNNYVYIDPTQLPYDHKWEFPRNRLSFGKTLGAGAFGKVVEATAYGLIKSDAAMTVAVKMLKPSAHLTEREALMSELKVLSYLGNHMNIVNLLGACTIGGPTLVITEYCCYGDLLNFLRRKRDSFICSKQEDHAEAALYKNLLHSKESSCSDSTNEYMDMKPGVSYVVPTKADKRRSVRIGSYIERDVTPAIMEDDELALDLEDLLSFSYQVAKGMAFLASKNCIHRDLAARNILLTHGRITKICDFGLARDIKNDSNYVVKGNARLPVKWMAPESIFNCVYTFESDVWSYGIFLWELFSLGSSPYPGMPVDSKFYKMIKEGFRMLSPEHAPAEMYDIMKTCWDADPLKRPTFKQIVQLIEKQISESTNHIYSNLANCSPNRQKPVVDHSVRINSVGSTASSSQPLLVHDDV
structure (smiles),measurement,setting,value
"C=CC(=O)Nc1cc(C)cc(-n2c(=O)cc(C)c3cnc(Nc4ccc(N5CCN(C)CC5)cc4OC)nc32)c1 [YL143, N‐(3‐(2‐((2‐Methoxy‐4‐(4‐methylpiperazin‐1‐yl)phenyl)amino)‐5‐methyl‐7‐oxopyrido [2,3‐d]pyrimidin‐8(7H)‐yl)‐5‐methylphenyl)acrylamide]",G0/G1 phase fraction,"H1975 cells; 300 nmol/L, 48 h",82.11%
same,cell cycle arrest and apoptosis,"H1975 cells; H1975 cells, 30 nmol/L",induces G0/G1 phase arrest and apoptosis
same,IC50,[1],21.1 ± 9.9 nM
same,IC50,BaF3-EGFR ^L858R,71 ± 41 nM
same,IC50,Kit,> 10000 nM
same,IC50,EGFR^Del 19,81.5 ± 10.3 nM
same,IC50,A549 (EGFR^WT) cells,> 1000 nM
same,IC50,[2],45.2 ± 27.3 nM
same,IC50,IGF1R,> 1000 nM
same,IC50,EGFR^T790M,7.8 ± 1.1 nM
